According to patent US20260337177A1, “TEAD CORE INHIBITORS FOR CANCER THERAPEUTICS” (University of Florida Research Foundation, Incorporated, priority 2023, published 2026):

How the values were obtained:
[1] = tested on: CYR61; assay: CYR61 mRNA expression by RT-qPCR in HepG2 cells; format: cell-based, human; settings: dose-dependent
Protocol: (§1) Huh7 and HepG2 liver cancer cells were seeded at 1×10^6 cells/dish and allowed to adhere overnight. The cells were then treated with indicated doses of compounds in medium for 24 hours. The cells were then harvested, and total RNA was purified using the Aurum total RNA mini kit (Bio-Rad #732-6820) according to the manufacturer's instructions. Complementary DNA was synthesized from 500 ng total RNA template by iScript reverse transcription kit (Bio-Rad #1725037) according to the manufacturer's instructions. Real-time PCR reactions utilized 60 ng cDNA and PrimePCR primers from Bio-Rad (Unique Assay ID: human GAPDH-qHsaCEP0041396, human CTGF-qHsaCEP0024255, human CYR61-qHsaCEP0024230) designed for SYBR Green gene expression analysis (Bio-Rad #1726270). All reactions were carried out in triplicate using Quant Studio 3 PCR system (Applied Biosystems). Relative gene expression level was quantified via ΔΔCt method by using GAPDH as an endogenous reference.

[2] = tested on: TAZ-TEAD; assay: Co-immunoprecipitation of endogenous TAZ and TEAD in NCI-H226 cells; format: cell-based; settings: 1 μM, 24 hours
Protocol: To assess if compound 22 inhibits the interaction between YAP/TAZ and TEAD proteins within the cell, compound 22 was administered to NF2-deficient NCI-H226 cells for 24 hours. Subsequently, the endogenous TEAD protein was isolated through immunoprecipitation using a pan-TEAD antibody and examined the immunocomplexes for the presence of YAP/TAZ proteins using anti-YAP/TAZ antibodies (as depicted in FIG. 18).
[…] protein lysate extracted using lysis buffer were incubated with 5 μL pan-TEAD antibody (CST #13295, 33 g/ml) at 4 ° C overnight with rotation, and then incubated with 15 μL Protein G magnetic beads (Fisher #88847) at R.T. for 1 hour with rotation. After binding, beads were washed three times with lysis buffer and one time with ddH2O. IP samples were eluted using 1× gel loading buffer supplied with 20 mM DTT and boiled at 96 ° C for 10 min. […] protein lysate were used for input, and 3% IP flow-thru were used for binding efficiency control. *0 indicated DMSO control. For the detection process, primary antibodies used were: YAP/TAZ rabbit monoclonal antibody (mAb) at a dilution of 1:2000, CST #8418S; Pan-TEAD rabbit mAb at 1:2000, CST #13295S; and 3-actin mouse mAb at 1:8000, Sigma #A5316. Secondary antibodies applied in 1× TBST were: Rabbit IgG-HRP at 1:10000 and Mouse IgG-HRP also at 1:10000.

[3] = tested on: Huh7 cells; assay: Colony formation (clonogenic) assay, Huh7; format: cell-based; settings: Homo sapiens, Huh-7, 48 h, read-out: Colony formation, rate of inhibition, Huh7
Protocol: The ability of compound 22 to inhibit the proliferation of liver cancer cell lines Huh7 and HepG2 was further assessed using a clonogenic assay.
Huh7 or HepG2 (500 cells/well) were plated into 6 well plates (500 cells per well) and treated with 0 or 5 μM compound 22. Colonies were grown in the absence of soft agar for 2 weeks in a humidified atmosphere of 5% C02 at 37 ° C Crystal violet blue solution (Sigma) was used to stain the colonies for one hour and fixed in methanol followed by counting under a microscope. Triplicate wells were used for each cell line and three independent experiments were performed.

[4] = tested on: HepG2 cells; assay: Apoptosis by Annexin V/PI flow cytometry, HepG2; format: cell-based, human; settings: 10 μM; 48 h
Protocol: In order to gain deeper insights into the underlying anticancer mechanism of compound 22, experiments were performed to validate whether the induction of G1 phase cells by compound 22 was linked to apoptosis. To achieve this, the cells treated with compound 22 were subjected to PI and FITC-annexin V staining to detect apoptotic cells. […] The proportions of total apoptosis including the early stage apoptosis and the later stage of apoptosis were 66.8%, and 83.5%, respectively, at concentrations of 5 and 10 μM. This trend was similarly observed in the case of HepG2 cells. […] The impact of compound 22 on inducing cell apoptosis was less pronounced in HepG2 cells compared to Huh7 cells, aligning with the outcomes of the cell cycle analysis, providing further coherence to the observed effects of compound 22 on these cell lines.
Apoptosis was detected using an Annexin V-FITC apoptosis detection kit (Thermo Fisher Scientific) following the manufacturer’ instructions. Briefly, about 50000 cells were suspended in 500 μl of binding buffer. The cells were incubated with 5 μl FITC-conjugated Annexin V for 15 minutes and incubated with 5 μl propidium Iodide staining solution for 15 minutes in darkness at room temperature. Cell apoptosis was then analyzed by flow cytometry using a FACSCalibur flow cytometer (Becton Dickinson, San Jose, CA).

[5] = tested on: CYR61; assay: CYR61 mRNA expression by RT-qPCR in Huh7 cells; format: cell-based, human; settings: dose-dependent
Protocol: as §1

[6] = tested on: Huh7 cells; assay: Apoptosis by calcein AM and ethidium homodimer-1 staining, Huh7; format: cell-based, human

O=C(CCl)c1c[nH]c2cc(Cl)c(OCc3cccc(C(F)(F)F)c3)cc12 [Compound 22, 2-chloro-1-(6-chloro-5-((3-(trifluoromethyl)benzyl)oxy)-1H-indol-3-yl)ethan-1-one]
CYR61 mRNA expression, HepG2 [1]: significantly inhibited | Co-IP of TAZ with pan-TEAD antibody [2]: not affecting TAZ | inhibition at 5 µM [3]: 62.5% | Maximum apoptotic rate (early+late apoptotic), HepG2 [4]: 69.0% | CYR61 mRNA expression, Huh7 [5]: significantly inhibited | Huh7 cell apoptosis [6]: promotes Huh7 cell apoptosis
